According to US20240057598A1, “USE OF 2-AMINO-3-METHYLHEXANOIC ACID AS PLANT IMMUNITY INDUCER” (NANJING AGRICULTURAL UNIVERSITY, priority 2020, published 2024):

Key:
[1] = tested on: tea variety Longjing 43; test: Field test: resistance of tea plants to high temperature and tea quality; type: in vivo; conditions: for Amino acid content: 5th day after use, tea leaves under high temperature stress; for Heat injury rate: 10th day after use, field; for PIABS: field heat stress
Procedure: In August 2020, a field test was conducted in the Sun Yat-sen Mausoleum Tea Garden in Nanjing, and the tea variety was Longjing 43. During the test, the actual temperature of the field was 37.6° C.-45.1° C., the concentration of 2-amino-3-methylhexanoic acid was 0, 10, 100, 1,000 and 10,000 nM, and 0.02% Tween 20 was added as a surfactant. Three repetitions were set for each treatment group. In a plot area of 20 m^2, the liquid spraying volume per plot was 2 L. The pesticide was applied to the field three times on August 6, August 8 and Aug. 15, 2020 respectively. On the 3rd, 7th and 14th days after the last use of the pesticide, the phenotype of a tea tree was observed, and a leaf and a bud were sampled from the top of the tea tree. 15 leaves were taken for each treatment group, and the chlorophyll fluorescence parameter PIABS ([…]) of tea leaves was determined with a plant efficiency analyzer Handy-PEA. Samples were taken and the total amino acid content in tea leaves was determined on the 5th day after use of the pesticide, and the heat injury rate was calculated on the 10th day after use of the pesticide.

[2] = tested on: P. fluorescens; conditions: cited from earlier work
[3] = tested on: ryegrass; test: Induced resistance of ryegrass to high temperature stress; type: in vivo; conditions: for Dry weight of overground part / Fresh weight of overground part / Heat injury index: 45° C. 12 h, 7 days recovery
Procedure: 2-amino-3-methylhexanoic acid was dissolved in distilled water and diluted with distilled water into solutions of 1 nM, 10 nM, 100 nM and 1,000 nM by gradient. A blank control was additionally set, and 0.02% Tween 20 was added as a surfactant. 4 groups of repetitions were set for each concentration, and a normal temperature blank control was set at the same time. Ryegrass seeds were weighed according to 0.8 g per pot, sowed in a pot with a diameter of 8.5 cm, and planted in a greenhouse at a temperature of 25° C., a humidity of 60%-70%, and a light intensity of 200 μmolm^−2s^−1 (12 h light/12 h dark). On the 8th day of the seedling stage, the ryegrass was sprayed with the 2-amino-3-methylhexanoic acid solutions on the leaves twice in 24 h. 24 h after the second treatment, the plants were transferred to a light incubator at a temperature of 45° C. for conducting high temperature stress treatment for 12 h, and then the plants were taken out and transferred to a greenhouse at a temperature of 25° C. for 7 days of recovery. The injured conditions of the plants were observed and counted, and the heat injury grade was calculated. […] After the counting, the fresh weight of the aboveground part of the plant was weighed, and then the aboveground part was baked in an 85° C. oven for 48 h to determine the dry weight.

[4] = tested on: Pseudomonas syringae PstDC3000; test: Induced resistance of Arabidopsis to Pseudomonas syringae infection; type: in vivo; conditions: for Number of bacteria in each milligram of leaf: Arabidopsis leaves, 3 days after inoculation; for Decrease of number of bacteria in each milligram of leaf: compared with blank control; for Decrease of disease index: versus blank control
Procedure: 2-amino-3-methylhexanoic acid was dissolved in sterile water and then diluted with sterile water into solutions of 1 nM, 10 nM, 100 nM, 1,000 nM and 10,000 nM by gradient. A blank control was additionally set, and 0.02% Tween 20 was added as a surfactant. Pseudomonas syringae PstDC3000 was spread on an LB plate and cultured at 28° C. for 48 h. Monoclonal colonies were selected and transferred into a 50 mL centrifuge tube containing 2 mL of a culture medium, and cultured on a shaker at 28° C. and 250 rpm. The change of the OD600 value of the bacterial solution was monitored every 1-2 h, and culture of bacteria was stopped before the OD600 value reached 0.8. 1 mL of bacterial solution was transferred into a 1.5 mL sterile centrifuge tube and centrifuged at 8,000 rpm for 2 min, and the precipitate was collected. The supernatant was removed, the precipitate was washed with 10 mM magnesium chloride three times and centrifuged, and finally the PstDC3000 was suspended in 10 mM magnesium chloride to make the OD600 value thereof reach 0.001 for use. Arabidopsis seeds were soaked in 75% alcohol for 3 min, then washed with sterile water 4 times, and sowed in a culture dish containing a ½ MS medium according to 12 seeds per culture dish. The ½ MS culture dish with seeds was vernalized at 4° C. for 3 days to break dormancy, and then placed in a culture room at 24° C. with a light intensity of 100 μEm^−2s^−1 (16 h light/8 h dark). When the seedlings grew for 2 weeks, the 2-amino-3-methylhexanoic acid of different concentrations was slowly poured into the culture dish until the whole Arabidopsis seedlings were submerged, and after 2-3 min, the treatment solution was poured out of the culture dish. The treatment was repeated once after 24 h and conducted twice in total. 24 h after the second treatment, the Arabidopsis leaves were inoculated with the PstDC3000 suspension (OD600=0.01) by the same submergence method. After inoculation, the culture dish was closed with a medical breathable adhesive tape, and placed in the culture room for further culture. 3 days later, the number of bacteria in different treatment groups was determined. The incidence of Arabidopsis was observed. The disease index was calculated by a formula the same as that in Example 1.
Grading standard of disease caused by PstDC3000 (per leaf): • Grade 0: No diseased spot on the leaf surface. • Grade 1: The diseased spot area accounts for 0-10% of the whole leaf area. • Grade 2: The diseased spot area accounts for 10-25% of the whole leaf area. • Grade 3: The diseased spot area accounts for 25-50% of the whole leaf area. • Grade 4: The diseased spot area accounts for 50-75% of the whole leaf area. • Grade 5: The diseased spot area accounts for 75-100% of the whole leaf area.

[5] = 100 nM, compared with untreated control group

CCCC(C)C(N)C(=O)O (stereo not drawn) [2-amino-3-methylhexanoic acid]
Amino acid content ([1]; 10 nM): 2.03 ± 0.05b % DW | Heat injury rate ([1]; 10 nM, tea leaves): 30% | PIABS ([1]; 10 nM, 3 d after last use, tea leaves): 6.25 ± 0.51c | PIABS ([1]; 10 nM, 7 d after last use, tea leaves): 6.43 ± 0.44b | PIABS ([1]; 10 nM, 14 d after last use, tea leaves): 14.44 ± 0.59c | Increase of total amino acid content versus control group ([1]; 10 nM, high temperature stress): 22% | Amino acid content ([1]; 100 nM): 2.21 ± 0.32a % DW | Heat injury rate ([1]; 100 nM, tea leaves): 17% | PIABS ([1]; 100 nM, 3 d after last use, tea leaves): 8.26 ± 0.63b | PIABS ([1]; 100 nM, 7 d after last use, tea leaves): 8.07 ± 0.36a | PIABS ([1]; 100 nM, 14 d after last use, tea leaves): 19.29 ± 0.95b | Increase of total amino acid content versus control group ([1]; 100 nM, high temperature stress): 33% | Amino acid content ([1]; 1,000 nM): 2.20 ± 0.05a % DW | Heat injury rate ([1]; 1,000 nM, tea leaves): 15% | PIABS ([1]; 1,000 nM, 3 d after last use, tea leaves): 8.48 ± 0.61ab | PIABS ([1]; 1,000 nM, 7 d after last use, tea leaves): 8.14 ± 0.70a | PIABS ([1]; 1,000 nM, 14 d after last use, tea leaves): 19.85 ± 1.04ab | Increase of total amino acid content versus control group ([1]; 1,000 nM, high temperature stress): 33% | PIABS higher than control group ([1]; 10,000 nM, 3rd day after use): 108% | Amino acid content ([1]; 10,000 nM): 2.23 ± 0.08a % DW | PIABS higher than control group ([1]; 10,000 nM, 7th day after use): 48% | Heat injury rate ([1]; 10,000 nM, tea leaves): 14% | PIABS higher than control group ([1]; 10,000 nM, 14th day after use): 52% | PIABS ([1]; 10,000 nM, 3 d after last use, tea leaves): 8.68 ± 0.56a | PIABS ([1]; 10,000 nM, 7 d after last use, tea leaves): 8.36 ± 0.51a | PIABS ([1]; 10,000 nM, 14 d after last use, tea leaves): 21.97 ± 0.88a | Increase of total amino acid content versus control group ([1]; 10,000 nM, high temperature stress): 34% | Optimum use concentration (accumulation of amino acids in tea leaves) ([1]; tea leaves, high temperature stress): 100 nM | Inhibitory effect [2]: no inhibitory effect | Optimal use concentration to alleviate high temperature stress [3]: 100 nM | Dry weight of overground part ([3]; 1 nM): 0.4 ± 0.01bc g | Fresh weight of overground part ([3]; 1 nM): 1.96 ± 0.19b g | Heat injury index ([3]; 1 nM): 70% | Dry weight of overground part ([3]; 10 nM): 0.46 ± 0.04ab g | Fresh weight of overground part ([3]; 10 nM): 2.14 ± 0.095 g | Heat injury index ([3]; 10 nM): 60% | Dry weight of overground part ([3]; 100 nM): 0.44 ± 0.02nb g | Fresh weight of overground part ([3]; 100 nM): 2.60 ± 0.02b g | Heat injury index ([3]; 100 nM): 30% | Increase of dry weight of aboveground part [3, 5]: 25% | Increase of fresh weight of aboveground part [3, 5]: 162% | Dry weight of overground part ([3]; 1,000 nM): 0.45 ± 0.01ab g | Fresh weight of overground part ([3]; 1,000 nM): 2.42 ± 0.15b g | Heat injury index ([3]; 1,000 nM): 30% | Disease index ([4]; 10 nM, Arabidopsis): 45.00 ± 2.78b | Number of bacteria in each milligram of leaf ([4]; 10 nM): 3.81 × 10^5 CPU/mg | Decrease of number of bacteria in each milligram of leaf ([4]; 10 nM): 88.24% | Decrease of disease index ([4]; 10 nM): 42.33 | Number of bacteria in each milligram of leaf ([4]; 100 nM): 2.49×10^5 CPU/mg | Decrease of number of bacteria in each milligram of leaf ([4]; 100 nM): 92.31% | Decrease of disease index ([4]; 100 nM): 45.85
